The results in this text go back to ChEMBL document CHEMBL3112479, “Synthesis and evaluation of the antimicrobial activities of 3-((5-phenyl-1,3,4-oxadiazol-2-yl)methyl)-2-thioxothiazolidin-4-one derivatives” (2014).

What is called MIC is the lowest concentration that inhibits growth of the organism.

In assay [1] the test system is Salmonella typhimurium. Put plainly: Antimicrobial activity against Salmonella typhimurium 2421 after 20 hrs by two-fold serial dilution technique. It counts as functional, Salmonella enterica subsp. enterica serovar Typhimurium. Particulars: Salmonella enterica, 2421, 20 h.
The test system of assay [2] is Escherichia coli. The assay is described as follows: Antimicrobial activity against Escherichia coli KCTC 1924 after 20 hrs by two-fold serial dilution technique. It counts as functional. Particulars: KCTC 1924, 20 h.
Assay [3] deals with Staphylococcus aureus. Put plainly: Antimicrobial activity against methicillin-resistant Staphylococcus aureus clinical isolate 3167 after 20 hrs by two-fold serial dilution technique. In kind it is functional. Particulars: isolate 3167, 20 h.
Assay [4] deals with Staphylococcus aureus. Put plainly: Antimicrobial activity against Staphylococcus aureus 209 after 20 hrs by two-fold serial dilution technique. It counts as functional. Particulars: Staphylococcus aureus, 209, 20 h.
The test system of a further assay is Streptococcus mutans. The assay is described as follows: Antimicrobial activity against Streptococcus mutans 3065 after 20 hrs by two-fold serial dilution technique. Particulars: Streptococcus mutans, 3065, 20 h. It counts as functional.
For assay [5], the system named is Pseudomonas aeruginosa. Put plainly: Antimicrobial activity against Pseudomonas aeruginosa 2004 after 20 hrs by two-fold serial dilution technique. In kind it is functional. Particulars: Pseudomonas aeruginosa, 2004, 20 h.
Assay [6] concerns Staphylococcus aureus. Put plainly: Antimicrobial activity against quinolone-resistant Staphylococcus aureus clinical isolate 3519 after 20 hrs by two-fold serial dilution technique. Particulars: isolate 3519, 20 h. It counts as functional.
The subject of assay [7] is Staphylococcus aureus. The assay is described as follows: Antimicrobial activity against quinolone-resistant Staphylococcus aureus clinical isolate 3505 after 20 hrs by two-fold serial dilution technique. In kind it is functional. Particulars: isolate 3505, 20 h.
Assay [8] deals with Salmonella typhimurium. The assay is described as follows: Antimicrobial activity against Salmonella typhimurium 1926 after 20 hrs by two-fold serial dilution technique. In kind it is functional, Salmonella enterica subsp. enterica serovar Typhimurium. Particulars: Salmonella enterica, 1926, 20 h.
Assay [9] concerns Escherichia coli. Put plainly: Antimicrobial activity against Escherichia coli CCARM 1356 after 20 hrs by two-fold serial dilution technique. It counts as functional. Particulars: CCARM 1356, 20 h.
Assay [10] concerns Pseudomonas aeruginosa. The assay is described as follows: Antimicrobial activity against Pseudomonas aeruginosa 2742 after 20 hrs by two-fold serial dilution technique. In kind it is functional. Particulars: Pseudomonas aeruginosa, 2742, 20 h.
The subject of assay [11] is Staphylococcus aureus. Put plainly: Antimicrobial activity against methicillin-resistant Staphylococcus aureus clinical isolate 3506 after 20 hrs by two-fold serial dilution technique. It counts as functional. Particulars: isolate 3506, 20 h.
In assay [12] the test system is Staphylococcus aureus. The assay is described as follows: Antimicrobial activity against Staphylococcus aureus RN4220 after 20 hrs by two-fold serial dilution technique. Particulars: RN4220, 20 h. It counts as functional.
Assay [13] deals with Staphylococcus aureus. The assay is described as follows: Antimicrobial activity against Staphylococcus aureus 503 after 20 hrs by two-fold serial dilution technique. In kind it is functional. Particulars: Staphylococcus aureus, 503, 20 h.
The test system of another assay is Candida albicans. The assay is described as follows: Antimicrobial activity against Candida albicans 7535 after 20 hrs by two-fold serial dilution technique. It counts as functional. Particulars: Candida albicans, 7535, 20 h.

Converted amounts (≈) assume the structure as drawn.

Take `O=C1CSC(=S)N1Cc1nnc(-c2cccc(Br)c2)o1`: the MIC was 128 µg/mL (≈ 346 µM) in the assay with Salmonella typhimurium [1]; 16 µg/mL (≈ 43.2 µM) against Escherichia coli [2]; 16 µg/mL (≈ 43.2 µM) in the assay with Staphylococcus aureus [3]; 16 µg/mL (≈ 43.2 µM) against Staphylococcus aureus [4]; 16 µg/mL (≈ 43.2 µM) against Streptococcus mutans; more than 128 µg/mL in the assay on Pseudomonas aeruginosa [5]. Further, the MIC with Staphylococcus aureus [6] is 32 µg/mL (≈ 86.4 µM); against Staphylococcus aureus [7], 32 µg/mL (≈ 86.4 µM); in the assay on Salmonella typhimurium [8], 32 µg/mL (≈ 86.4 µM); against Escherichia coli [9], more than 128 µg/mL; against Pseudomonas aeruginosa [10], more than 128 µg/mL; against Staphylococcus aureus [11], 32 µg/mL (≈ 86.4 µM). Also, the MIC with Staphylococcus aureus [12], with Staphylococcus aureus [13] and in the assay on Candida albicans was 32 µg/mL (≈ 86.4 µM) in each case.
With `O=C1CSC(=S)N1[C@@H](Cc1ccccc1)c1nnc(-c2cccc(Cl)c2)o1`, the MIC in the assay with Salmonella typhimurium [1] is more than 128 µg/mL; with Escherichia coli [2], more than 128 µg/mL; in the assay on Staphylococcus aureus [3] it was 4 µg/mL (≈ 9.62 µM); against Staphylococcus aureus [4], more than 64 µg/mL; against Streptococcus mutans, 4 µg/mL (≈ 9.62 µM); with Pseudomonas aeruginosa [5] it was more than 128 µg/mL. The MIC is 8 µg/mL (≈ 19.2 µM) against Staphylococcus aureus [6]; 8 µg/mL (≈ 19.2 µM) with Staphylococcus aureus [7]; more than 128 µg/mL in the assay with Salmonella typhimurium [8]; more than 128 µg/mL in the assay on Escherichia coli [9]; more than 128 µg/mL against Pseudomonas aeruginosa [10]; 8 µg/mL (≈ 19.2 µM) against Staphylococcus aureus [11]. For the same compound, the MIC in the assay on Staphylococcus aureus [12] is 8 µg/mL (≈ 19.2 µM); in the assay with Staphylococcus aureus [13] it was more than 64 µg/mL; in the assay on Candida albicans, more than 64 µg/mL.
Take `Cc1cccc(-c2nnc(CN3C(=O)/C(=C/c4ccc(C(=O)O)cc4)SC3=S)o2)c1`: the MIC with Salmonella typhimurium [1] is more than 128 µg/mL; in the assay with Escherichia coli [2], more than 128 µg/mL; in the assay on Staphylococcus aureus [3], 32 µg/mL (≈ 73.1 µM); against Staphylococcus aureus [4], 32 µg/mL (≈ 73.1 µM); against Streptococcus mutans, 16 µg/mL (≈ 36.6 µM); in the assay with Pseudomonas aeruginosa [5] it was more than 128 µg/mL. Also, the MIC in the assay with Staphylococcus aureus [6] is 32 µg/mL (≈ 73.1 µM); in the assay on Staphylococcus aureus [7], 32 µg/mL (≈ 73.1 µM); against Salmonella typhimurium [8] it was more than 128 µg/mL; against Escherichia coli [9], more than 128 µg/mL; in the assay on Pseudomonas aeruginosa [10] it was more than 128 µg/mL; in the assay on Staphylococcus aureus [11] it was 32 µg/mL (≈ 73.1 µM). For the same compound, the MIC against Staphylococcus aureus [12] is 16 µg/mL (≈ 36.6 µM); in the assay on Staphylococcus aureus [13], 32 µg/mL (≈ 73.1 µM); against Candida albicans, more than 64 µg/mL.
On to `COc1c(N2CCNC(C)C2)c(F)cc2c(=O)c(C(=O)O)cn(C3CC3)c12` (stereo unspecified) [GATIFLOXACIN], for which the MIC in the assay on Salmonella typhimurium [1] stood at 0.5 µg/mL (≈ 1.33 µM); in the assay with Escherichia coli [2], 2 µg/mL (≈ 5.33 µM); in the assay with Staphylococcus aureus [3] it was 2 µg/mL (≈ 5.33 µM); in the assay on Staphylococcus aureus [4], 2 µg/mL (≈ 5.33 µM); in the assay on Streptococcus mutans it was 0.5 µg/mL (≈ 1.33 µM); in the assay with Pseudomonas aeruginosa [5], 1 µg/mL (≈ 2.66 µM). Besides, the MIC against Staphylococcus aureus [6] amounted to 4 µg/mL (≈ 10.7 µM); with Staphylococcus aureus [7], 8 µg/mL (≈ 21.3 µM); with Salmonella typhimurium [8] it was 2 µg/mL (≈ 5.33 µM); in the assay with Escherichia coli [9], 16 µg/mL (≈ 42.6 µM); against Pseudomonas aeruginosa [10] it was 1 µg/mL (≈ 2.66 µM); against Staphylococcus aureus [11], 2 µg/mL (≈ 5.33 µM). For the same compound, the MIC in the assay on Staphylococcus aureus [12] is 0.25 µg/mL (≈ 0.666 µM); with Staphylococcus aureus [13], 4 µg/mL (≈ 10.7 µM); in the assay with Candida albicans, 0.5 µg/mL (≈ 1.33 µM).
Take `O=C1CSC(=S)N1Cc1nnc(-c2ccc(Br)cc2)o1`: the MIC against Salmonella typhimurium [1] was 128 µg/mL (≈ 346 µM); in the assay on Escherichia coli [2], 64 µg/mL (≈ 173 µM); against Staphylococcus aureus [3] it was 64 µg/mL (≈ 173 µM); against Staphylococcus aureus [4], 64 µg/mL (≈ 173 µM); in the assay on Streptococcus mutans it was 16 µg/mL (≈ 43.2 µM); in the assay on Pseudomonas aeruginosa [5], more than 128 µg/mL. Moreover, the MIC with Staphylococcus aureus [6] was 64 µg/mL (≈ 173 µM); against Staphylococcus aureus [7], 64 µg/mL (≈ 173 µM); in the assay on Salmonella typhimurium [8], 64 µg/mL (≈ 173 µM); in the assay on Escherichia coli [9], more than 128 µg/mL; against Pseudomonas aeruginosa [10], more than 128 µg/mL; with Staphylococcus aureus [11], 64 µg/mL (≈ 173 µM). Besides, the MIC in the assay on Staphylococcus aureus [12], in the assay on Staphylococcus aureus [13] and against Candida albicans was 64 µg/mL (≈ 173 µM) each time.
As to `Cc1onc(-c2ccccc2)c1C(=O)N[C@@H]1C(=O)N2[C@@H]1SC(C)(C)[C@@H]2C(=O)O` [OXACILLIN], the MIC with Staphylococcus aureus [3] is more than 64 µg/mL; in the assay with Staphylococcus aureus [6], 1 µg/mL (≈ 2.49 µM); with Staphylococcus aureus [7], 1 µg/mL (≈ 2.49 µM); in the assay with Staphylococcus aureus [11], more than 64 µg/mL.
Consider `CCn1cc(C(=O)O)c(=O)c2cc(F)c(N3CCNCC3)cc21` [NORFLOXACIN], for which the minimal inhibitory concentration (MIC) was 8 µg/mL (≈ 25.1 µM) in the assay on Staphylococcus aureus [3], more than 64 µg/mL against Staphylococcus aureus [6], more than 64 µg/mL in the assay on Staphylococcus aureus [7] and 4 µg/mL (≈ 12.5 µM) against Staphylococcus aureus [11].
Take `COc1c(N2C[C@@H]3CCCN[C@@H]3C2)c(F)cc2c(=O)c(C(=O)O)cn(C3CC3)c12` [MOXIFLOXACIN]: the MIC against Salmonella typhimurium [1] stood at 0.5 µg/mL (≈ 1.25 µM); in the assay with Streptococcus mutans, 0.25 µg/mL (≈ 0.623 µM); against Pseudomonas aeruginosa [5] it was 2 µg/mL (≈ 4.98 µM); against Salmonella typhimurium [8], 1 µg/mL (≈ 2.49 µM); in the assay with Escherichia coli [9], 128 µg/mL (≈ 319 µM); in the assay with Staphylococcus aureus [12], 0.25 µg/mL (≈ 0.623 µM). Besides, the minimum inhibitory concentration (MIC) with Staphylococcus aureus [13] was 2 µg/mL (≈ 4.98 µM); in the assay on Candida albicans, 0.5 µg/mL (≈ 1.25 µM).
